Assay results: patent US9586958B2, “Prodrug derivatives of substituted triazolopyridines” (BAYER PHARMA AKTIENGESELLSCHAFT, priority 2013, dated 2017)
Structures can show the parent of a compound that is named as a salt.

Key:
[1] = Stability in buffer at pH 7.4 (HPLC); type: physicochemical; details: buffer pH 7.4, 37° C.
Protocol: 0.3 mg of the test compound are solved in 0.1 ml dimethylsulfoxide and 0.4 ml acetonitrile. For complete dissolution the HPLC vial with the sample solution is sonified for about 20 seconds. Then 1.0 ml of the buffer solution is added, and the sample is again treated in the ultrasonic bath.
90 g of sodium chloride, 13.61 g of potassium dihydrogen phosphate and 83.35 g of 1 M sodium hydroxide solution are made up to 1 liter with Millipore water and then diluted 1:10.
10 μl portions of the sample solution are analysed by HPLC to determine the amount of the test compound over a period of 24 hours at 37° C. The peak areas in percentage are used for quantification.
Agilent 1100 with DAD (G1315B), binary pump (G1312A), autosampler (G1329A), column oven (G1316A), thermostat (G1330B); column: Kromasil 100 C18, 250 mm×4 mm, 5 μm; column temperature: 37° C.; eluent A: water+5 ml of perchloric acid/liter, eluent B: acetonitrile.
The ratio of the peak areas (F) at different time points in relation to the peak areas at the starting time are shown in Table 2 for representative examples: […]

[2] = In vitro stability in rat plasma (HPLC detection); type: in vitro ADME; details: 37° C.
Protocol: 1 mg of test compound is dissolved in 1.25 ml dimethylsulfoxide. Then 1.25 ml water are added. 0.5 ml of this sample solution are mixed with 0.5 ml heparinized and 37° C. warm plasma (wistar rat plasma or human plasma). A first sample (10 μl) is immediately taken for HPLC analysis. In the period up to 4 h after the start of incubation further 10 μl aliquots are taken after 30, 60, 90, 120 and 240 minutes and the amount of the test compound is determined.
Agilent 1100 with DAD (G1315A), binary pump (G1312A), autosampler (G1329A), column oven (G1316A), thermostat (G1330B); column: Kromasil 100 C18, 250 mm×4 mm, 5 μm; column temperature: 45° C.; eluent A: water+5 ml of perchloric acid/liter, eluent B: acetonitrile.

Compound	% Test Compound after 24 h [F(t = 24 h) × 100/F(t = 0 h)] [1]	% Test Compound after 4 h [F(t = 24 h) × 100/F(t = 0 h)] [2]	% Test Compound after 4 h [F(t = 24 h) × 100/F(t = 0 h)] ([2]; hydrochloride)
COc1cc(S(C)(=O)=O)ccc1N(C(=O)OC(OC(=O)[C@@H](N)C(C)(C)C)C(C)C)c1nc2ccc(-c3ccc(NC(=O)[C@H](C)c4ccc(F)cc4)cc3)cn2n1.Cl (mixture of isomers) [Example 5.1, (1RS)-1-({[6-(4-{[(2R)-2-(4-fluorophenyl)propanoyl]amino}phenyl)[1,2,4]triazolo[1,5-α]pyridin-2-yl][2-methoxy-4-(methylsulfonyl)phenyl]carbamoyl}oxy)-2-methylpropyl 3-methyl-L-valinate hydrochloride]	21%	19%	–
COc1cc(S(C)(=O)=O)ccc1N(C(=O)OC(OC(=O)[C@@H](N)C(C)C)C(C)C)c1nc2ccc(-c3ccc(NC(=O)[C@H](C)c4ccc(F)cc4)cc3)cn2n1.Cl (mixture of isomers) [Example 5.4, (1RS)-1-({[6-(4-{[(2R)-2-(4-fluorophenyl)propanoyl]amino}phenyl)[1,2,4]triazolo[1,5-α]pyridin-2-yl][2-methoxy-4-(methylsulfonyl)phenyl]carbamoyl}oxy)-2-methylpropyl-L-valinate hydrochloride]	17%	44%	–
COc1cc(S(C)(=O)=O)ccc1N(C(=O)OC(C)OC(=O)[C@@H](N)C(C)(C)C)c1nc2ccc(-c3ccc(NC(=O)[C@H](C)c4ccc(F)cc4)cc3)cn2n1.Cl (single isomer, unassigned) [Example 3.3, (1R or 1S)-1-({[6-(4-{[(2R)-2-(4-fluorophenyl)propanoyl]amino}phenyl)[1,2,4]triazolo[1,5-α]pyridin-2-yl][2-methoxy-4-(methylsulfonyl)phenyl]carbamoyl}oxy)ethyl-3-methyl-L-valinate hydrochloride]	0.0%	–	22%
COc1cc(S(C)(=O)=O)ccc1N(C(=O)OC(C)OC(=O)[C@@H](N)C(C)(C)C)c1nc2ccc(-c3ccc(NC(=O)[C@H](C)c4ccc(F)cc4)cc3)cn2n1.Cl (single isomer, unassigned) [Example 3.4, (1S or 1R)-1-({[6-(4-{[(2R)-2-(4-fluorophenyl)propanoyl]amino}phenyl)[1,2,4]triazolo[1,5-α]pyridin-2-yl][2-methoxy-4-(methylsulfonyl)phenyl]carbamoyl}oxy)ethyl-3-methyl-L-valinate hydrochloride]	0.0%	–	29%
COc1cc(S(C)(=O)=O)ccc1N(C(=O)OC(OC(=O)[C@@H](N)C(C)C)C(C)C)c1nc2ccc(-c3ccc(NC(=O)[C@H](C)c4ccc(F)cc4)cc3)cn2n1 (single isomer, unassigned) [Example 5.2, (1R or S)-1-({[6-(4-{[(2R)-2-(4-fluorophenyl)propanoyl]amino}phenyl)[1,2,4]triazolo[1,5-α]pyridin-2-yl][2-methoxy-4-(methylsulfonyl)phenyl]carbamoyl}oxy)-2-methylpropyl-L-valinate hydrochloride]	48%	44%	–
COc1cc(S(C)(=O)=O)ccc1N(C(=O)OCOC(=O)[C@@H](N)C(C)C)c1nc2ccc(-c3ccc(NC(=O)[C@H](C)c4ccc(F)cc4)cc3)cn2n1 [Example 1.2, ({[6-(4-{[(2R)-2-(4-fluorophenyl)propanoyl]amino}phenyl)[1,2,4]triazolo[1,5-α]pyridin-2-yl][2-methoxy-4-(methylsulfonyl)phenyl]carbamoyl}oxy)methyl L-valinate hydrochloride]	0.0%	0.0%	–
CN[C@H](C(=O)OCOC(=O)N(c1nc2ccc(-c3ccc(NC(=O)[C@H](C)c4ccc(F)cc4)cc3)cn2n1)c1ccc(S(C)(=O)=O)cc1OC)C(C)C.Cl [Example 1.4, ({[6-(4-{[(2R)-2-(4-fluorophenyl)propanoyl]amino}phenyl)[1,2,4]triazolo[1,5-α]pyridin-2-yl][2-methoxy-4-(methylsulfonyl)phenyl]carbamoyl}oxy)methyl N-methyl-L-valinate hydrochloride]	0.0%	14%	–
COc1cc(S(C)(=O)=O)ccc1N(C(=O)OCOC(=O)[C@@H](N)C(C)(C)C)c1nc2ccc(-c3ccc(NC(=O)[C@H](C)c4ccc(F)cc4)cc3)cn2n1.Cl [Example 1.5, ({[6-(4-{[(2R)-2-(4-fluorophenyl)propanoyl]amino}phenyl)[1,2,4]triazolo[1,5-α]pyridin-2-yl][2-methoxy-4-(methylsulfonyl)phenyl]carbamoyl}oxy)methyl 3-methyl-L-valinate hydrochloride]	0.0%	0.0%	–
COc1cc(S(C)(=O)=O)ccc1N(C(=O)OCOC(=O)C(C)(C)CN)c1nc2ccc(-c3ccc(NC(=O)[C@H](C)c4ccc(F)cc4)cc3)cn2n1.O=C(O)C(F)(F)F [Example 1.8, ({[6-(4-{[(2R)-2-(4-fluorophenyl)propanoyl]amino}phenyl)[1,2,4]triazolo[1,5-α]pyridin-2-yl][2-methoxy-4-(methylsulfonyl)phenyl]carbamoyl}oxy)methyl 3-amino-2,2-dimethylpropanoate trifluoroacetate]	0.0%	3%	–
COc1cc(S(C)(=O)=O)ccc1N(C(=O)OCOC(=O)[C@@H](NC(=O)[C@@H](N)CCCCN)C(C)C)c1nc2ccc(-c3ccc(NC(=O)[C@H](C)c4ccc(F)cc4)cc3)cn2n1.Cl.Cl [Example 2.1, ({[6-(4-{[(2R)-2-(4-fluorophenyl)propanoyl]amino}phenyl)[1,2,4]triazolo[1,5-α]pyridin-2-yl][2-methoxy-4-(methylsulfonyl)phenyl]carbamoyl}oxy)methyl L-lysyl-L-valinate dihydrochloride]	0.0%	0.0%	–
COc1cc(S(C)(=O)=O)ccc1N(C(=O)OCOC(=O)[C@@H](NC(=O)[C@@H](N)C(C)C)C(C)C)c1nc2ccc(-c3ccc(NC(=O)[C@H](C)c4ccc(F)cc4)cc3)cn2n1 [Example 2.3, ({[6-(4-{[(2R)-2-(4-fluorophenyl)propanoyl]amino}phenyl)[1,2,4]triazolo[1,5-α]pyridin-2-yl][2-methoxy-4-(methylsulfonyl)phenyl]carbamoyl}oxy)methyl L-valyl-L-valinate hydrochloride]	16%	37%	–
CNCCCC(=O)N(c1nc2ccc(-c3ccc(NC(=O)[C@H](C)c4ccc(F)cc4)cc3)cn2n1)c1ccc(S(C)(=O)=O)cc1OC.O=C(O)C(F)(F)F [Example 4.1, N-[6-(4-{[(2R)-2-(4-fluorophenyl)propanoyl]amino}phenyl)[1,2,4]triazolo[1,5-α]pyridin-2-yl]-N-[2-methoxy-4-(methylsulfonyl)phenyl]-4-(methylamino)butanamide trifluoroacetate]	23%	12%	–
CNCCCC(=O)N(c1nc2ccc(-c3ccc(NC(=O)[C@H](C)c4ccc(F)cc4)cc3)cn2n1)c1ccc(S(C)(=O)=O)cc1OC.Cl [Example 4.1.1, N-[6-(4-{[(2R)-2-(4-fluorophenyl)propanoyl]amino}phenyl)[1,2,4]triazolo[1,5-α]pyridin-2-yl]-N-[2-methoxy-4-(methylsulfonyl)phenyl]-4-(methylamino)butanamide hydrochloride]	21%	32%	–
C[C@@H](C(=O)Nc1ccc(-c2ccc3nc(N(C(=O)OCOC(=O)[C@@H](N)C(C)(C)C)c4ccc(S(C)(=O)=O)cc4OCC(F)(F)F)nn3c2)cc1)c1ccc(F)cc1.Cl [Example 6.1, ({[6-(4-{[(2R)-2-(4-fluorophenyl)propanoyl]amino}phenyl)[1,2,4]triazolo[1,5-α]pyridin-2-yl][4-(methylsulfonyl)-2-(2,2,2-trifluoroethoxy)phenyl]carbamoyl}oxy)methyl 3-methyl-L-valinate hydrochloride]	0.0%	4%	–
C[C@@H](C(=O)Nc1ccc(-c2ccc3nc(N(C(=O)OCOC(=O)[C@@H](N)C(C)(C)C)c4ccc(C(=O)N5CC(F)C5)cc4OCC(F)(F)F)nn3c2)cc1)c1ccc(F)cc1.Cl [Example 6.3, [({4-[(3-fluoroazetidin-1-yl)carbonyl]-2-(2,2,2-trifluoroethoxy)phenyl}[6-(4-{[(2R)-2-(4-fluorophenyl)propanoyl]amino}phenyl)[1,2,4]triazolo[1,5-α]pyridin-2-yl]carbamoyl)oxy]methyl 3-methyl-L-valinate hydrochloride]	0.0%	0.0%	–
